# Experimental data from patent publication US4076802A (priority 1977, dated 1978).
# Like-named read-outs stand apart in the source and are kept apart here.
# How the values were obtained:
# KB cells = assay: KB monolayer cytotoxicity test; assay type: cell-based, human
# [1] = test system: Saccharomyces cerevisiae 90 (yeast); assay: Antifungal MIC, Table 5; assay type: cell-based; conditions: Culture ATCC 4226
# [2] = test system: Candida albicans 155 (yeast); assay: Antifungal MIC, Table 5; assay type: cell-based; conditions: Culture NRRL 477
# wood decay organisms = assay: Fungicidal activity; assay type: in vivo; conditions: spraying as 25% wettable powder
# [3] = test system: Botrytis cinerea (grey mold diseases); assay: Activity against plant disease fungi on several crops; assay type: in vivo
# bean beetle = assay: Larvicidal activity; assay type: in vivo
# Colorado potato beetle = assay: Larvicidal activity; assay type: in vivo
# [4] = test system: Uromyces species (cereal rust disease); assay: Activity against plant disease fungi on several crops; assay type: in vivo
# [5] = test system: Rhizoctonia solani (damping off diseases); assay: as above; assay type: in vivo
# crown rust of oats = assay: Fungicidal activity; assay type: in vivo; conditions: spraying as 25% wettable powder
# army worm = assay: Larvicidal activity; assay type: in vivo
# [6] = test system: Puccinia species (cereal rust disease); assay: Activity against plant disease fungi on several crops; assay type: in vivo
# mosquito larvae = assay: Larvicidal activity; assay type: in vivo
# [7] = test system: Piricularia oryzae (rice blast disease); conditions: in vivo
# Solubility in solvents = assay type: physicochemical
# [8] = test system: Paecilomyces varioti M16 (fungus); assay: Antifungal MIC, Table 5; assay type: cell-based; conditions: Culture ATCC 26820
# mice = assay: 24 hour acute toxicity in mice; assay type: in vivo
# [9] = test system: Penicillium digitatum 0184 (mold); assay: Antifungal MIC, Table 5; assay type: cell-based; conditions: Culture ATCC 26821
# housefly = assay: Larvicidal activity; assay type: in vivo
smiles,measurement,setting,value
C/C=C/[C@H]1O[C@@](O)([C@@H](C)[C@H](O)[C@H](C)[C@H]2OC(=O)/C(OC)=C/C(C)=C/[C@@H](C)[C@@H](O)[C@@H](CC)[C@@H](O)[C@H](C)C/C(C)=C/C=C/[C@@H]2OC)C[C@@H](O[C@H]2C[C@@H](O)[C@H](OC(N)=O)[C@@H](C)O2)[C@@H]1C,ID50,KB cells,0.0045 µg/mL
same,MIC value,[1],3.33 µg/mL
same,MIC value,[2],1.11 µg/mL
same,fungicidal activity,wood decay organisms,exhibits fungicidal activity
same,fungicidal activity,"[3]; grey mold, spraying as 25% wettable powder",exhibits fungicidal activity
same,activity against Botrytis cinerea,[3]; on several crops,active
same,larvicidal activity,bean beetle,excellent activity
same,larvicidal activity,bean beetle; spraying on leaves,exhibits larvicidal activity
same,larvicidal activity,Colorado potato beetle,excellent activity
same,larvicidal activity,Colorado potato beetle; spraying on leaves,exhibits larvicidal activity
same,activity against Uromyces species,[4],active
same,activity against Rhizoctonia solani,[5],active
same,fungicidal activity,crown rust of oats,exhibits fungicidal activity
same,larvicidal activity,army worm,excellent activity
same,activity against Puccinia species,[6],active
same,larvicidal activity,mosquito larvae; mosquito larvae,excellent activity
same,larvicidal activity,"mosquito larvae; mosquito, spraying",exhibits larvicidal activity
same,activity against Piricularia oryzae,[7],active
same,fungicidal activity,[7],exhibits fungicidal activity
same,solubility,Solubility in solvents; in 95% ethanol,47.5 mg/mL
same,solubility,Solubility in solvents; in acetone,> 100 mg/mL
same,solubility,Solubility in solvents; in benzyl alcohol,> 100 mg/mL
same,solubility,Solubility in solvents; in dimethylformamide,> 100 mg/mL
same,solubility,Solubility in solvents; in glycerine,< 1 mg/mL
same,solubility,Solubility in solvents; in methanol,> 100 mg/mL
same,solubility,Solubility in solvents; in polyethylene glycol 400,< 1 mg/mL
same,solubility,Solubility in solvents; in propylene glycol,< 1 mg/mL
same,solubility,Solubility in solvents; in tetrahydrofuran,> 100 mg/mL
same,solubility,Solubility in solvents; in water,< 1 mg/mL
same,MIC value,[8],3.33 µg/mL
same,24 hour acute toxicity (LD50),mice; i.p.,2.45 mg/kg
same,24 hour acute toxicity (LD50),mice; p.o.,21 mg/kg
same,MIC value,[9],3.33 µg/mL
same,larvicidal activity,housefly,excellent activity
